Four molecules from patent publication US20150065440A1 (Progen Pharmaceuticals Limited, priority 2007, published 2015) can be followed below.

Counter-ions that a name gives are not always drawn. Like-named read-outs stand apart in the source and are kept apart here.

Data set [1] has as its system pooled normal human plasma. Briefly: Anticoagulant activity, APTT. The following applies: 0.1 mg/mL in normal pooled human plasma. Here is the method: APTT measurements were performed on a STAGO STA-Compact Coagulation Analyser using standard protocols according to the manufacturer's instructions. Unfractionated heparin (UFH) was used as a control.
Data set [2] concerns normal pooled human plasma. The data set can be described thus: Anticoagulant activity, Heptest. The settings on record: 0.1 mg/mL in normal pooled human plasma.
In another data set the target is FGF-2 (Homo sapiens, UniProt P09038). The data set can be described thus: Growth factor binding assay (SPR solution affinity), FGF-2. In outline: (§1)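 Kd measured by SPR solution affinity: fixed growth factor with varying ligand competing for heparin-coated sensorchip, 25 °C. Buffer HBS-EP pH 7.4 (150 mM NaCl) for FGF-1 and VEGF; FGF-2 with 0.3 M NaCl. Duplicate values averaged.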

Another data set has as its target T1, VEGF (Homo sapiens, UniProt P15692).
T1 sequence (P15692 207-395): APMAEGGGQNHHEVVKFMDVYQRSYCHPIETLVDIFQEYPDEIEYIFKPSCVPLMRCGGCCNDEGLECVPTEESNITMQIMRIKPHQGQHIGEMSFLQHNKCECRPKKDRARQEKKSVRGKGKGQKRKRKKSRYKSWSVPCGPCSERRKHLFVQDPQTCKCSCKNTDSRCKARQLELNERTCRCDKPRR
The data set can be described thus: Growth factor binding assay (SPR solution affinity), VEGF. The following applies: HBS-EP buffer, 25° C. The essentials:
as §1

The format of data set [3] is in vivo, Sprague-Dawley rats. Here is the method:
Adult male Sprague-Dawley (SD) rats (approx 300 g) were used for the experiment. Femoral artery cannulae was implanted and exteriorised following isoflurane anaesthesia. Jugular vein artery cannulae was implanted and exteriorized. […]. Blood samples (˜325 μL) were collected into sample tubes containing the anticoagulant sodium citrate from femoral artery catheter pre-dose and at 5, 20 minutes and 2, 5, 8, 12, 24, and 48 hours post-dose, and kept at reduced temperature (approx 4° C.) until centrifuged. Blood samples were centrifuged, plasma separated and 50 μL aliquot of the plasma transferred to a scintillation vial for counting. At the end of the experimental period animals were euthanased via a lethal overdose of pentobarbital. The level of radioactivity in the plasma was measured following mixing of samples with Packard Ultima Gold liquid scintillation counting cocktail. Counting was conducted on a Beckman liquid scintillation counter (LS6500) or Packard TriCarb liquid scintillation counter for 10 minutes per sample. Results (DPM, calculated from an in-built quench curve in the counter) were corrected for background prior to any calculations. The pharmacokinetic parameters were calculated using PK Solutions 2.0 software (Summit Research Services, Ohio, U.S.A.) and are summarised in Table 11 below.

In a further data set the target is FGF-1 (Homo sapiens, UniProt P05230). Briefly: Growth factor binding assay (SPR solution affinity), FGF-1.
Data set [4] has as its system HUVEC proliferation induced by FGF-1. Briefly: Growth factor induced endothelial cell proliferation assay, FGF-1. In kind it is cell-based, human. The following applies: Homo sapiens, HUVEC, 72 h; read-out: FGF-1 (IC50) inhibition of HUVEC proliferation. An excerpt:
(§2) HUVEC cells were maintained and subcultured according to standard cell culture protocols essentially as described by Lonza. Briefly, cells were maintained in Lonza endothelial growth media (EGM) with recommended supplements and growth factors (VEGF, FGF2, EFG, IGF, hydrocortisone, fetal bovine serum (FBS), ascorbic acid, heparin and gentamicin). Cells were subcultured when they reached 70-80% confluence by trypsinisation and reseeding in fresh growth medium in new culture vessels at 2500 to 5000 cells/cm^2 of vessel surface area. Cell counts were performed using a haemocytometer and viable cells were visualized with trypan blue.
(§3) Medium for the proliferation studies was prepared using EGM with 2% FBS and gentamicin only. In a later study, complete EGM was used for the VEGF groups in an attempt to enhance the proliferative index of VEGF-stimulated groups. For the tube formation assay, complete medium was used with only heparin omitted. Compounds under investigation were weighed out from powder stocks and diluted in PBS to 10 mM stock solutions and stored at −80° C. For experiments, compounds were subsequently diluted in EBM-2 medium (supplemented with 2% FBS and gentamicin) to various working concentration as required.
(§4) In the first of a series of experiments, the assay was further optimized by examining the cell density and growth factor concentration required to induce maximal proliferation by growth factors. Briefly, 100 μL of cells was added to each well at concentrations between 1-3×10^3 per well. Growth factors and test compounds were then added in 50 μL volumes at specified concentrations to obtain a final volume of 200 μL. Following incubation for 70 h, 20 μL of the CellTitre 96® Aqueous One Solution Cell Proliferation Assay (Promega) was added for 2 h prior to reading the absorbance at 490 nm to obtain OD values.

A further data set concerns HSV-2. The data set can be described thus: Viral plaque number-reduction assay, HSV-2. The settings on record: Human alphaherpesvirus 2, read-out: HSV-2 IC50. Here is the method: (§5) African green monkey kidney (GMK AH1) cells^46 were cultured in Eagle's minimum essential medium (EMEM) supplemented with 2% calf serum, 0.05% Primaton RL substance (Kraft Inc., Norwich, USA) and antibiotics. Human epidermoid carcinoma (HEp-2) cells were cultured in Dulbecco's modified EMEM (DMEM) supplemented with 10% fetal calf serum and antibiotics. […] The RSV strain A-2^50 was used. The RSV stock was prepared as described by Hallak et al.^51 and stored at −70° C. in the presence of 40% sucrose^52.
(§6) The viral infectivity (the plaque number-reduction) assay and the plaque size-reduction assay were carried out as described previously^17. […] Subsequently, the cells were washed with 2 mL of EMEM and overlaid with 1% methylcellulose solution in EMEM. The plaques were visualized by staining with crystal violet solution after 2 (HSV-2) or 3 (HSV-1) days of incubation at 37° C. […] When the compounds were screened for anti-HSV or anti-RSV activity, mixtures of 200 PFU of the virus and the test compound (100 μg/mL) in serum-free EMEM were incubated for 10 min at room temperature before addition to cells and during the entire period of viral infection of cells and the development of viral plaques. In the plaque size-reduction assay, the compounds were added to cells (in methylcellulose overlay medium) after 2 h period of virus infection of cells in the absence of the inhibitor. After 2-3 days of incubation at 37° C., the viral plaques were visualized by staining the cells with 1% solution of crystal violet. For each compound tested, the images of twenty neighboring plaques were captured using a Leica DC300 digital camera attached to a Leitz-Wetzlar Diavert microscope. The area of each plaque was determined using IM500 image software (Leica). Similar protocols were used for RSV, except that the assays were performed in HEp-2 cells and DMEM supplemented with 2% heat-inactivated fetal calf serum was used instead of EMEM.

Data set [5] deals with HUVEC proliferation induced by FGF-2. Briefly: Growth factor induced endothelial cell proliferation assay, FGF-2. The class given is cell-based, human. The settings on record: Homo sapiens, HUVEC, 72 h; read-out: FGF-2 (IC50) inhibition of HUVEC proliferation.
Description: as §2, §3, §4

In data set [6] the test system is HUVEC proliferation induced by VEGF. The data set can be described thus: Growth factor induced endothelial cell proliferation assay, VEGF. The following applies: Homo sapiens, HUVEC, 72 h; read-out: VEGF (IC50) inhibition of HUVEC proliferation. In kind it is cell-based, human.
Description: as §2, §3, §4

A further data set relates to RSV. Briefly: Viral plaque number-reduction assay, RSV. The following applies: human respiratory syncytial virus, read-out: RSV IC50. Here is the method: as §5, §6
Data set [7] addresses T2, recombinant human heparanase (Homo sapiens, UniProt Q9Y251).
T2 sequence (Q9Y251 158-543 limits assumed): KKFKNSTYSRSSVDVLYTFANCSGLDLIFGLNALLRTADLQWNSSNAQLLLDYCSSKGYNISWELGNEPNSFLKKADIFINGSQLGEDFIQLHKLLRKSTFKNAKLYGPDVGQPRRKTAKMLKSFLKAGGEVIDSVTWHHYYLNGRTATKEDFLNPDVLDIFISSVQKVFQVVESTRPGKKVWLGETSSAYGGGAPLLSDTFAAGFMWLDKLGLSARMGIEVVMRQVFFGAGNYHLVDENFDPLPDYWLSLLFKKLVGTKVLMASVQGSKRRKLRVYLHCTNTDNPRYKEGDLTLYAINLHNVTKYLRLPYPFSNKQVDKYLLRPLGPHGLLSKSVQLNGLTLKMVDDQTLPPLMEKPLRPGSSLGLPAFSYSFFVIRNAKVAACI
T2 sequence (Q9Y251 36-109 limits assumed): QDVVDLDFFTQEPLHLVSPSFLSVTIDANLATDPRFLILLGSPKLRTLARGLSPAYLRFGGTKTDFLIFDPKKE
The data set can be described thus: Heparanase inhibition assay (fondaparinux cleavage, WST-1). A general note: Formazan colour is commonly taken as a measure of viable cells.

Sequence of FGF-2 (P09038 143-288, species assumed): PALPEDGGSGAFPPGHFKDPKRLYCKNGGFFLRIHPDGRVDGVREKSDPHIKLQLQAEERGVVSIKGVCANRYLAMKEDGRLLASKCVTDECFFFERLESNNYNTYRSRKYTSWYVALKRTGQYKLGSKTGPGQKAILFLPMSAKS
Sequence of FGF-1 (P05230 whole entry, species assumed): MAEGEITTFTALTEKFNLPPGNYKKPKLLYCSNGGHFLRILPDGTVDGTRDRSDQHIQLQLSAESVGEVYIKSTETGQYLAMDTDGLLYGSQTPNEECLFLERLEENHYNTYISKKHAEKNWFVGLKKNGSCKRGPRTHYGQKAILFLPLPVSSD

In [1], `CC(C)CCCC(C)C1CCC2C3CCC4CC(OC5OC(COS(=O)(=O)O)C(OC6OC(COS(=O)(=O)O)C(OC7OC(COS(=O)(=O)O)C(OC8OC(COS(=O)(=O)O)C(OS(=O)(=O)O)C(OS(=O)(=O)O)C8OS(=O)(=O)O)C(OS(=O)(=O)O)C7OS(=O)(=O)O)C(OS(=O)(=O)O)C6OS(=O)(=O)O)C(OS(=O)(=O)O)C5OS(=O)(=O)O)CCC4(C)C3CCC12C` [Compound 65, 3β-Cholestanyl 2,3,4,6-tetra-O-sodium sulfonato-α-D-glucopyranosyl-(1→4)-2,3,6-tri-O-sodium sulfonato-α-D-glucopyranosyl-(1→4)-2,3,6-tri-O-sodium sulfonato-α-D-glucopyranosyl-(1→4)-2,3,6-tri-O-sodium sulfonato-β-D-glucopyranoside] came in with an APTT of 71.9 s. In data set [2], the Heptest is 28.6 s. The Kd (as a rule, the equilibrium constant for the complex coming apart) is 390 ± 80 nM on FGF-2 (SPR, HBS-EP buffer containing 0.3 M NaCl, 25° C., read-out: Kd FGF-2) and 28.9 ± 2.3 nM on VEGF. Besides, in [3] (intra venous, Sprague-Dawley rats, radiolabelled compound in plasma), the “Half-life (iv)” value is 17.3 h. In data set [3] (subcutaneous, Sprague-Dawley rats, radiolabelled compound in plasma), the “Half-life (sc)” value was found to be 21.3 h.

`CC(C)CCC[C@@H](C)[C@H]1CC[C@H]2[C@@H]3CC[C@H]4C[C@@H](O[C@H]5O[C@H](COS(=O)(=O)O)[C@@H](OS(=O)(=O)O)[C@H](OS(=O)(=O)O)[C@@H]5OS(=O)(=O)O)CC[C@]4(C)[C@H]3CC[C@]12C` [Compound 79, 3β-Cholestanyl 2,3,4,6-tetra-O-sulfonato-α-D-mannopyranoside tetrasodium salt]: the Kd came to 3600 ± 600 nM on FGF-1 (SPR, HBS-EP buffer, 25° C., read-out: Kd FGF-1) and 3000 ± 400 nM at VEGF. The APTT in data set [1] is recorded as 36.1 s. Besides, the IC50 in data set [4] worked out at 2200 nM; with HSV-2, 0.28 µg/mL; in data set [5], 2900 nM; in data set [6] it was 2240 nM; with RSV, 2.9 µg/mL. In data set [2], the Heptest came out at 23.9 s. For the same molecule, in [7] (read-out: Ki Heparanase, IC50 converted into Ki, fondaparinux 100 μM, pH 5.0), the Ki (usually the equilibrium dissociation constant of an inhibitor or competing ligand from its target) was 111 ± 28 nM.

In the case of `CC(C)CCCC(C)C1CCC2C3CCC4CC(OCc5cn(C6OC(COS(=O)(=O)O)C(OC7OC(COS(=O)(=O)O)C(OS(=O)(=O)O)C(OS(=O)(=O)O)C7OS(=O)(=O)O)C(OS(=O)(=O)O)C6OS(=O)(=O)O)nn5)CCC4(C)C3CCC12C` [Compound 93, 4-(Cholestan-3β-yl-oxymethyl) [1,2,3]triazol-1-yl 2,3,4,6-tetra-O-sulfo-β-D-galactopyranosyl-(1→4)-2,3,6-tri-O-sulfo-β-D-glucopyranoside, heptasodium salt], the results for the Kd on FGF-1, on FGF-2 and on VEGF were 610 ± 210 nM, 1800 ± 300 nM and 1600 ± 300 nM, respectively. In [1], the APTT worked out at 39.6 s. Moreover, the IC50 in data set [4] was 2690 nM; in the data set with HSV-2, 0.27 µg/mL; in data set [5], 2430 nM; in [6], 2620 nM; with RSV it was 0.4 µg/mL. The molecule also came in with a Heptest in data set [2] of 25.3 s. In data set [7], the Ki stood at 30 ± 7 nM.

With PI-88 [reference compound], the “Half-life (iv)” value in data set [3] (rat, in vivo, iv) was 1.1 h. Besides, the “Half-life (sc)” value in [3] (rat, in vivo, sc) was determined as 1.2 h.
